From ChEMBL document CHEMBL1201862, “PubChem BioAssay data set” (2004)
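Method: 48-hour compound exposure of cells in 96-well plates, five concentrations, linear interpolation of endpoints. GI50 is the concentration that inhibits growth by half.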 Active and inactive are the calls of the source. No stated cut-off is given here; in the data, active = GI50 up to about 1.1 µM and inactive = higher.

What was measured:
Test in all cases: growth of human tumour cells (NCI), 48 h
[1] = test system: HCT-15
[2] = test system: NCI-H226
[3] = test system: KM12
[4] = test system: RPMI-8226
[5] = test system: CCRF-CEM
[6] = test system: HOP-92
[7] = test system: CAKI-1
[8] = test system: T47D
[9] = test system: TK-10
[10] = test system: MDA-MB-231
[11] = test system: Hs-578T
[12] = test system: SK-MEL-28
[13] = test system: SF-268
[14] = test system: SN12C
[15] = test system: SNB-75
[16] = test system: SR
[17] = test system: DU-145
[18] = test system: MOLT-4
[19] = test system: M14
[20] = test system: OVCAR-5
[21] = test system: UACC-257
[22] = test system: ACHN
[23] = test system: SK-MEL-5
[24] = test system: LOX IMVI
[25] = test system: MCF7
[26] = test system: OVCAR-3
[27] = test system: MDA-N
[28] = test system: U-251
[29] = test system: HCT-116
[30] = test system: EKVX
[31] = test system: BT-549
[32] = test system: OVCAR-8
[33] = test system: HT-29
[34] = test system: K562
[35] = test system: NCI-H23
[36] = test system: SNB-19
[37] = test system: Malme-3M
[38] = test system: PC-3
[39] = test system: UO-31
[40] = test system: IGROV-1
[41] = test system: HL-60
[42] = test system: HCC 2998
[43] = test system: SF-539
[44] = test system: A498
[45] = test system: RXF 393
[46] = test system: HOP-62
[47] = test system: NCI-H522
[48] = test system: A549
[49] = test system: SF-295
[50] = test system: 786-0
[51] = test system: SW-620
[52] = test system: NCI-H460
[53] = test system: OVCAR-4
[54] = test system: SK-OV-3
[55] = test system: SK-MEL-2
[56] = test system: MDA-MB-435
[57] = test system: UACC-62
[58] = test system: COLO 205

Which results are given for `COC(=O)c1cc(C)ccc1/C=C1\Cc2cccc(C)c2C1=O`?
GI50 [1]: 18.8 µM; GI50 [2]: 58.3 µM (inactive); GI50 [3]: 26.7 µM (inactive); GI50 [4]: 28.8 µM (inactive); GI50 [5]: 12.3 µM (inactive); GI50 [6]: 20.4 µM (inactive); GI50 [7]: 49.2 µM (inactive); GI50 [8]: 6.68 µM (inactive); GI50 [9]: > 100 µM (inactive); GI50 [10]: 26.7 µM (inactive); GI50 [11]: 57.5 µM (inactive); GI50 [12]: 62.1 µM (inactive); GI50 [13]: 98.9 µM (inactive); GI50 [14]: 4.9 µM (inactive); GI50 [15]: 35.1 µM (inactive); GI50 [16]: 24.7 µM (inactive); GI50 [17]: 65.3 µM (inactive); GI50 [18]: 9.35 µM (inactive); GI50 [19]: > 100 µM (inactive); GI50 [20]: 78.7 µM (inactive); GI50 [21]: 22 µM (inactive); GI50 [22]: 38.7 µM (inactive); GI50 [23]: 7.06 µM (inactive); GI50 [24]: 8.77 µM (inactive); GI50 [25]: 30.5 µM (inactive); GI50 [26]: 19.5 µM (inactive); GI50 [27]: 11.1 µM (inactive); GI50 [28]: 36.6 µM (inactive); GI50 [29]: 18.1 µM (inactive); GI50 [30]: 33.1 µM (inactive); GI50 [31]: 17.6 µM (inactive); GI50 [32]: 14.1 µM (inactive); GI50 [33]: 12.8 µM (inactive); GI50 [34]: 9.02 µM (inactive); GI50 [35]: > 100 µM (inactive); GI50 [36]: > 100 µM (inactive); GI50 [37]: 20.5 µM (inactive); GI50 [38]: 8.04 µM (inactive); GI50 [39]: 44.7 µM (inactive); GI50 [40]: 76.9 µM (inactive); GI50 [41]: 19.7 µM (inactive); GI50 [42]: 47.5 µM (inactive); GI50 [43]: 67.3 µM (inactive); GI50 [44]: 46.3 µM (inactive); GI50 [45]: 61.9 µM (inactive); GI50 [46]: 31.2 µM (inactive); GI50 [47]: 10.5 µM (inactive); GI50 [48]: 28.2 µM (inactive); GI50 [49]: 30.9 µM (inactive); GI50 [50]: 50.4 µM (inactive); GI50 [51]: 31.6 µM (inactive); GI50 [52]: > 100 µM (inactive); GI50 [53]: 68.5 µM (inactive)

What does the source list for `CN1N(c2ccccc2)C(=O)C2=NC=C(C(=O)c3ccccc3)C(=N)C21C` (stereo not drawn)?
GI50 [54]: > 100 µM (inactive); GI50 [1]: > 100 µM; GI50 [2]: > 100 µM (inactive); GI50 [4]: > 100 µM (inactive); GI50 [55]: > 100 µM (inactive); GI50 [5]: > 100 µM (inactive); GI50 [6]: > 100 µM (inactive); GI50 [7]: > 100 µM (inactive); GI50 [8]: > 100 µM (inactive); GI50 [9]: > 100 µM (inactive); GI50 [10]: > 100 µM (inactive); GI50 [11]: > 100 µM (inactive); GI50 [12]: > 100 µM (inactive); GI50 [13]: > 100 µM (inactive); GI50 [14]: > 100 µM (inactive); GI50 [16]: > 100 µM (inactive); GI50 [17]: > 100 µM (inactive); GI50 [18]: > 100 µM (inactive); GI50 [19]: > 100 µM (inactive); GI50 [56]: > 100 µM (inactive); GI50 [20]: > 100 µM (inactive); GI50 [21]: > 100 µM (inactive); GI50 [22]: > 100 µM (inactive); GI50 [23]: > 100 µM (inactive); GI50 [24]: > 100 µM (inactive); GI50 [25]: > 100 µM (inactive); GI50 [26]: > 100 µM (inactive); GI50 [27]: > 100 µM (inactive); GI50 [28]: > 100 µM (inactive); GI50 [29]: > 100 µM (inactive); GI50 [30]: > 100 µM (inactive); GI50 [31]: > 100 µM (inactive); GI50 [33]: > 100 µM (inactive); GI50 [34]: > 100 µM (inactive); GI50 [35]: > 100 µM (inactive); GI50 [36]: > 100 µM (inactive); GI50 [37]: > 100 µM (inactive); GI50 [57]: > 100 µM (inactive); GI50 [38]: > 100 µM (inactive); GI50 [39]: > 100 µM (inactive); GI50 [40]: > 100 µM (inactive); GI50 [41]: > 100 µM (inactive); GI50 [42]: > 100 µM (inactive); GI50 [43]: > 100 µM (inactive); GI50 [44]: > 100 µM (inactive); GI50 [45]: > 100 µM (inactive); GI50 [58]: > 100 µM (inactive); GI50 [46]: > 100 µM (inactive); GI50 [47]: > 100 µM (inactive); GI50 [48]: > 100 µM (inactive); GI50 [49]: > 100 µM (inactive); GI50 [50]: > 100 µM (inactive); GI50 [51]: > 100 µM (inactive); GI50 [52]: > 100 µM (inactive); GI50 [53]: > 100 µM (inactive)
